Values of other authors in patent US8206772B2, “Structured lipid compositions and methods of formulation thereof” (Kraft Foods Global Brands LLC, priority 2007, dated 2012).

What was measured:
[1] = infants fed enriched milk
[2] = rats, 5 percent and 10 percent of the diet

Row | SMILES | fat retained per day [1] [%] | nutritional value / toxicity when fed [2]
1 | CCCC(=O)OCC(COC(=O)CCC)OC(=O)CCC [tributyrin] | 90.1 to 90.2 | nutritious
2 | CC(C)CC(=O)OCC(COC(=O)CC(C)C)OC(=O)CC(C)C [triisovalerin] | – | toxic
3 | CC(=O)OCC(COC(C)=O)OC(C)=O [triacetin] | – | nutritious
